This is an account of results in patent publication US10858316B2, “Small molecule inhibitors of the MCL-1 oncoprotein and uses thereof” (University of Maryland, Baltimore, priority 2015, dated 2020).

Structures are written as SMILES.

As a reminder, the Ki is the equilibrium dissociation constant of an inhibitor or competing ligand from its target.

Chain of Mcl-1 (Q07820 172-327): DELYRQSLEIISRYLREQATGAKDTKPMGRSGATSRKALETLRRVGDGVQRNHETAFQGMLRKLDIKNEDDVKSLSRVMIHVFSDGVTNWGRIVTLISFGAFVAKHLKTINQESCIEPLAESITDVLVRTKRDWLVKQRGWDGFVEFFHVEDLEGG

One test concerns the target Mcl-1 (Homo sapiens (Human), UniProt Q07820). The test is described as follows: Fluorescence polarization competition assay (FPCA), Mcl-1 / FITC-Bak BH3 peptide. To be noted: FPC assay; read-out: Mcl-1 Ki. It counts as binding. An excerpt:
The tagged protein was initially purified from the crude cell lysate by immobilized metal affinity chromatography (IMAC) chromatography (GE Healthcare Life Sciences), and after dialysis to remove the imidazole the affinity tag was cleaved using PreScission Protease (GE Healthcare Life Sciences). A Sephacryl S-200 size exclusion column was used as a final purification step before the protein was concentrated with a 10,000 MWCO centifugal filter concentrator (Millipore).
Fluorescence polarization experiments were conducted using a BMG PHERAstar FS multimode microplate reader equipped with two PMTs for simultaneous measurements of the perpendicular and parallel fluorescence emission. The assays were performed in black polypropylene 384-well microplate (Costar) with a final volume of 20 microliter. […] Regression analysis was carried out using Origin (OriginLab, Northampton, Mass.) to fit the data to the Hill equation (1) to determine the initial binding affinity (KD) and the IC50 in the FPCA. For the fluorescence polarization competition titrations, an equation derived by Nikolovska-Coleska et al. was used to calculate the Ki from the IC50 data.
The target molecules were assayed for their abilities to disrupt the Mcl-1-Bak-BH3 PPI in a fluorescence polarization competition (FPC) assay with Mcl-1 and FITC-labeled Bak-BH3 peptide. Further details on the FPC assay can be found in the Supporting Information.
(Fluorescence polarisation rises when a labelled molecule tumbles more slowly, as on binding a larger partner.)
As for `O=C(O)C1Cc2ccccc2N(S(=O)(=O)c2ccc(-c3ccccc3)cc2)C1` (racemic) [±-8d], the Ki is more than 500 µM.

For `O=C(O)C1CNc2ccccc2C1` (racemic) [±-6, 1,2,3,4-tetrahydroquinoline-3-carboxylic acid], the Ki is more than 500 µM. Same read-out and setting: the same measure for `O=C(O)C1Cc2ccccc2N(S(=O)(=O)c2ccccc2)C1` (racemic) [±-8a]: 193 µM.

The same test, now with this note: FPCA with FITC-Bak; Ki from IC50 by Nikolovska-Coleska equation; read-out: Mcl-1 Ki.
Consider `O=C(O)c1cc(S(=O)(=O)Nc2ccccc2)c2ccccc2c1O` [Compound 3l, 1-Hydroxy-4-(N-phenylsulfamoyl)-2-naphthoic acid], for which the inhibition constant Ki amounted to 106 ± 26 µM. As for `O=C(O)c1cc(S(=O)(=O)N2CCCCC2)c2ccccc2c1O` [Compound 3i, 1-Hydroxy-4-(piperidin-1-ylsulfonyl)-2-naphthoic Acid], the inhibition constant Ki was found to be 2.95 ± 0.43 µM.

As to `O=C(O)c1cc(S(=O)(=O)Nc2ccccc2-c2ccccc2)c2ccccc2c1O` [Compound 3r, 4-(N-([1,1′-Biphenyl]-2-yl)sulfamoyl)-1-hydroxy-2-naphthoic Acid], the Ki came out at 8.5 ± 1.34 µM. The same measure, in the same setting: the same measure for `CC(C)CN(c1ccc(-c2nnn[nH]2)cc1)S(=O)(=O)c1ccc(Oc2ccccc2)cc1` [LC-5-068 24]: 3.3 ± 0.26 µM; for `NS(=O)(=O)c1cc(C(=O)O)c(O)c2ccccc12` [Compound 3b, 1-Hydroxy-4-sulfamoyl-2-naphthoic Acid]: 99 µM; for `O=C(O)c1ccc(N(C2CCCC2)S(=O)(=O)c2ccc(-c3ccccc3)cc2)cc1O` [LC-4-082 13bb]: 5.24 ± 0.694 µM. Same read-out and setting: the same measure for `Cc1ccc(S(=O)(=O)N(CC(C)C)c2cccc(C(=O)O)c2)cc1` [4jc177-2 18ae]: 155 ± 14.7 µM.

For `O=C(O)C1Cc2ccccc2N(S(=O)(=O)c2ccc(-c3ccccc3)cc2)C1` (racemic) [±-8d], the Ki was more than 500 µM.

With `O=C(O)c1cc(S(=O)(=O)N2CCN(Cc3ccccc3)CC2)c2ccccc2c1O` [Compound 3k, 4-((4-Benzylpiperazin-1-yl)sulfonyl)-1-hydroxy-2-naphthoic Acid], the inhibitory constant (Ki) came to 3.41 ± 0.37 µM. Regarding `O=C(O)c1ccc(N(Cc2ccccc2)S(=O)(=O)c2ccc(-c3ccccc3)cc2)cc1O` [LC-4-112 13cb], the Ki is 1.71 ± 0.144 µM.

In the case of `O=C(O)c1cc(S(=O)(=O)Nc2ccc(Cl)cc2)c2ccccc2c1O` [Compound 3v, 4-(N-(4-Chlorophenyl)sulfamoyl)-1-hydroxy-2-naphthoic Acid], the Ki came out at 1.91 ± 0.26 µM.

In the case of `O=C(O)c1ccc2c(c1)CCCN2S(=O)(=O)c1ccc2ccccc2c1` [LC-3-006, 1-(naphthalen-2-ylsulfonyl)-1,2,3,4-tetrahydroquinoline-6-carboxylic acid], the inhibition constant (Ki) came to 22 µM. The same measure, in the same setting: then `O=C(O)c1cc(S(=O)(=O)NCc2ccccc2)c2ccccc2c1O` [Compound 3c, 4-(N-Benzylsulfamoyl)-1-hydroxy-2-naphthoic Acid], with 56.3 ± 2.1 µM. Still for that read-out and setting: then `CC(C)CN(c1ccc(C(=O)O)c(O)c1)S(=O)(=O)c1ccc(Br)cc1` [LC-5-012 13ae], with 17 ± 1.5 µM; and `O=C(O)c1cc(S(=O)(=O)Nc2ccc(Oc3ccc(Cl)cc3)cc2)c2ccccc2c1O` [Compound 3bh, 4-(N-(4-(4-Chlorophenoxy)phenyl)sulfamoyl)-1-hydroxy-2-naphthoic Acid], with 0.173 µM.

Regarding `O=C(O)c1cc(S(=O)(=O)N2CCN(c3ccccc3)CC2)c2ccccc2c1O` [Compound 3j, 1-Hydroxy-4-((4-phenylpiperazin-1-yl)sulfonyl)-2-naphthoic Acid], the inhibitory constant (Ki) stood at 4.54 ± 3.86 µM. For the compound `O=C(O)C1CNc2ccccc2C1` (racemic) [±-6, 1,2,3,4-tetrahydroquinoline-3-carboxylic acid], the Ki was more than 500 µM.

As for `N#Cc1cccc(NS(=O)(=O)c2cc(C(=O)O)c(O)c3ccccc23)c1` [Compound 3ad, 4-(N-(3-Cyanophenyl)sulfamoyl)-1-hydroxy-2-naphthoic Acid], the inhibitory constant (Ki) came to 26.9 ± 0.6 µM. For the compound `Cc1ccc(S(=O)(=O)N(CC(C)C)c2ccc(C(=O)O)c(O)c2)cc1` [4jc117-2 13af], the Ki turned out to be 61.2 ± 4.49 µM.

`O=C(O)C1Cc2ccccc2N(S(=O)(=O)c2ccccc2)C1` (racemic) [±-8a]: the inhibition constant (Ki) is 193 ± 24 µM. For the compound `CC(C)CN(c1cccc(C(=O)O)c1)S(=O)(=O)c1ccc(F)cc1` [4jc177-6 18ad], the inhibition constant Ki was more than 500 µM. Turning to `COC(=O)c1cc(S(=O)(=O)N(CC(C)C)c2ccc(Br)cc2)c2ccccc2c1O` [Compound 3cb, Methyl 4-(N-(4-bromophenyl)-N-isobutylsulfamoyl)-1-hydroxy-2-naphthoate], the inhibition constant Ki is more than 500 µM. Still for that read-out and setting: then `O=C(O)c1ccc2c(c1)CCCN2S(=O)(=O)c1ccc(Br)cc1` [LC-3-004, 1-((4-bromophenyl)sulfonyl)-1,2,3,4-tetrahydroquinoline-6-carboxylic acid], with 203 µM.

`CC(=O)OCOC(=O)c1ccc(N(CC(C)C)S(=O)(=O)c2ccc(Oc3ccccc3)cc2)cc1O` [LC-4-141 22]: the Ki was more than 500 µM.

As to `CC(C)CN(c1ccc(C(=O)O)c(O)c1)S(=O)(=O)c1ccc(F)cc1` [LC-5-025 13ad], the Ki was 99.4 ± 9.37 µM. Still for that read-out and setting: the same measure for `CC(C)CN(c1ccc(C(=O)O)cc1)S(=O)(=O)c1ccc(F)cc1` [LC-3-025 8d]: more than 500 µM. `O=C(O)C1Cc2ccccc2N(S(=O)(=O)c2ccc3ccccc3c2)C1` (racemic) [±-8e]: the inhibition constant (Ki) came out at 59 ± 6 µM.

Consider `CC(C)CN(c1ccc(C#N)c(O)c1)S(=O)(=O)c1ccc(Oc2ccccc2)cc1` [LC-5-050 23], for which the Ki is more than 500 µM. As for `CC(C)CN(c1ccc(C(=O)O)cc1)S(=O)(=O)c1ccccc1` [LC-3-029 8a], the inhibition constant Ki was more than 500 µM. On the same count and under the same terms, the same measure for `CC(C)CN(c1ccc(C(=O)NO)c(O)c1)S(=O)(=O)c1ccc(Oc2ccccc2)cc1` [LC-5-061 25]: 71 ± 5.8 µM. Still for that read-out and setting: the same measure for `O=C(O)c1cc(S(=O)(=O)NCc2ccccc2Cl)c2ccccc2c1O` [Compound 3d, 4-(N-(2-Chlorobenzyl)sulfamoyl)-1-hydroxy-2-naphthoic Acid]: 50.3 ± 11.8 µM. For `O=C(O)c1cc(S(=O)(=O)Nc2ccc(-c3ccccc3)cc2)c2ccccc2c1O` [Compound 3t, 4-(N-([1,1′-Biphenyl]-4-yl)sulfamoyl)-1-hydroxy-2-naphthoic Acid], the Ki stood at 1.54 ± 0.46 µM. `CC(C)CN(c1ccc(C(=O)O)c(O)c1)S(=O)(=O)c1ccc(Oc2ccc(Cl)cc2Cl)cc1` [LC-4-111 13aj]: the Ki is 2.74 ± 0.258 µM. `Cc1ccc(Oc2ccc(S(=O)(=O)N(CC(C)C)c3ccc(C(=O)O)c(O)c3)cc2)cc1` [LC-4-119 13ah]: the Ki was determined as 2.25 ± 0.168 µM.

Take `COc1c(C(=O)O)cc(S(=O)(=O)N(CC(C)C)c2ccc(Br)cc2)c2ccccc12` [Compound 3cd, 4-(N-(4-Bromophenyl)-N-isobutylsulfamoyl)-1-methoxy-2-naphthoic Acid]: the Ki is 23.4 ± 2.6 µM.

As to `O=C(O)C1Cc2ccccc2N(S(=O)(=O)c2ccc(F)cc2)C1` (racemic) [±-8c], the Ki turned out to be 176 ± 115 µM.

Still in this test, the particulars now being: fluorescence polarization competition assay; read-out: Ki (μM) Mcl-1.
Turning to `CC(C)CN(c1ccc(C(=O)O)c(O)c1)S(=O)(=O)c1ccc2ccccc2c1` [Compound 4jc117-3, 2-hydroxy-4-(N-isobutylnaphthalene-2-sulfonamido)benzoic acid], the Ki amounted to 60.3 ± 24.4 µM.

Staying with this test, now noted: read-out: Mcl-1 Ki.
Regarding `O=C(O)C1Cc2ccccc2N(S(=O)(=O)c2ccc(-c3ccccc3)cc2)C1` (racemic) [SF-5-133, (±)-1-([1,1′-biphenyl]-4-ylsulfonyl)-1,2,3,4-tetrahydroquinoline-3-carboxylic acid], the inhibition constant (Ki) is 12 µM.

As for `O=C(O)C1Cc2ccccc2N(S(=O)(=O)c2ccc(Br)cc2)C1` (racemic) [SF-5-135, (±)-1-((4-bromophenyl)sulfonyl)-1,2,3,4-tetrahydroquinoline-3-carboxylic acid], the Ki was more than 1000 µM.

Still in this test, the particulars now being: ΔG=−RTlnKi from experimental Ki.
On to `O=C(O)c1cc(S(=O)(=O)Nc2ccccc2)c2ccccc2c1O` [3l; SF-5-311], for which the “Mcl-1 Exp ΔG” value is -5.42 kcal/mol. For `O=C(O)c1cc(S(=O)(=O)NCc2cccc(Cl)c2)c2ccccc2c1O` [3e; 5JC71], the “Mcl-1 Exp ΔG” value was -7.22 kcal/mol. Still for that read-out and setting: the same measure for `O=C(O)c1cc(S(=O)(=O)N2CCN(c3ccccc3)CC2)c2ccccc2c1O` [3j; EW-2-051]: -7.29 kcal/mol; for `NS(=O)(=O)c1cc(C(=O)O)c(O)c2ccccc12` [3b; SF-5-294]: -5.46 kcal/mol. The same measure, in the same setting: the same measure for `O=C(O)c1cc(S(=O)(=O)Nc2ccc(Oc3ccccc3)cc2)c2ccccc2c1O` [3bb; SF-5-299]: -8.10 kcal/mol; for `O=C(O)c1cc(S(=O)(=O)NCc2ccccc2Cl)c2ccccc2c1O` [3d; 5JC73-2]: -5.86 kcal/mol; for `O=C(O)c1cc(S(=O)(=O)Nc2ccc(-c3ccccc3)cc2)c2ccccc2c1O` [3t; LC-3-192]: -7.93 kcal/mol. `CC(C)Oc1ccc(NS(=O)(=O)c2cc(C(=O)O)c(O)c3ccccc23)cc1` [3aa; SF-5-293]: the “Mcl-1 Exp ΔG” value was -5.82 kcal/mol. The same measure, in the same setting: then `COC(=O)c1cc(S(=O)(=O)N(CC(C)C)c2ccc(Br)cc2)c2ccccc2c1O` [Compound 3cb, Methyl 4-(N-(4-bromophenyl)-N-isobutylsulfamoyl)-1-hydroxy-2-naphthoate], with more than -4.50 kcal/mol; and `Cc1ccc(NS(=O)(=O)c2cc(C(=O)O)c(O)c3ccccc23)cc1` [3x; 5JC74-1], with -6.09 kcal/mol.

`O=C(O)c1cc(S(=O)(=O)Nc2cccc(-c3ccccc3)c2)c2ccccc2c1O` [3s; LC-3-192]: the “Mcl-1 Exp ΔG” value is -7.81 kcal/mol. On to `COc1c(C(=O)O)cc(S(=O)(=O)N(CC(C)C)c2ccc(Br)cc2)c2ccccc12` [Compound 3cd, 4-(N-(4-Bromophenyl)-N-isobutylsulfamoyl)-1-methoxy-2-naphthoic Acid], for which the “Mcl-1 Exp ΔG” value was -6.31 kcal/mol. With `O=C(O)c1cc(S(=O)(=O)N2CCN(Cc3ccccc3)CC2)c2ccccc2c1O` [3k; SF-5-307], the “Mcl-1 Exp ΔG” value is -7.45 kcal/mol. For the compound `O=C(O)c1cc(S(=O)(=O)Nc2ccc(Oc3ccc(Cl)cc3)cc2)c2ccccc2c1O` [3bh; SF-5-304], the “Mcl-1 Exp ΔG” value is -9.22 kcal/mol. As for `O=C(O)c1cc(S(=O)(=O)Nc2ccc(Cl)cc2)c2ccccc2c1O` [3v; 5JC67], the “Mcl-1 Exp ΔG” value is -7.80 kcal/mol.
